# Laboratory results from patent publication US6770673B1, “Therapeutic uses of arglabin in combination with other chemotherapy agents” (priority 1997, dated 2004).
# Marks after values point to notes of the source that are not given here.
# How the values were obtained:
# [1] = LD50, intraperitoneal injection; assay type: in vivo; conditions: 2% solution in DMSO
# From the text: (§1) Overall, the compounds in this family have low toxicity and are tolerated at dosages exceeding the therapeutic dosage.
# Solubility in water = assay type: physicochemical
# M-1 Sarcoma = assay: Inhibition of tumor growth in implanted tumors; assay type: in vivo, mice and rats; conditions: dose 30 mg/kg
# L-1210 = assay: Implanted leukemia, survival; assay type: in vivo, mice and rats; conditions: dose 30 mg/kg
# [2] = Toxicity and maximum tolerable doses of arglabin and derivatives; assay type: in vivo, rats, guinea pigs, mice, rabbits; conditions: 2% aqueous solution, blood serum and hepatic tissue
# From the text: as §1
# Blood pressure was maintained.
# immune system [3] = assay: Immunologic status of patients of the first clinical trial, rozette-formation and phagocytosis; assay type: in vivo, human
# Experimental: Immunologic status of the patients was evaluated using standard methods of rozette-formation and phagocytosis. These indices were studied prior to treatment, during treatment and after treatment. Blood samples were taken from a finger. […] A general change in the ratio of T-helper lymphocytes to T-suppressor lymphocytes was due to an increase of T-suppressor lymphocytes. […] Total number of leukocytes increased up to 9.4×10^9/L and the total number of lymphocytes increased as well. The levels of all types of immunoglobulins increased.
# By day 20 of treatment, all indices returned to normal. In some patients, indices returned to normal by day 14. In patients that were analyzed 30 days after treatment, a significant increase in the number of T-lymphocytes and adhesiveness of neutrophils was observed.
# [4] = system: Sarcoma-45 resistant to prospidine; assay: Inhibition of growth of resistant tumour strains; assay type: in vivo, rats; conditions: dose 50 mg/kg
# X-653 cells = assay: Viability of transformed cells, trypan blue exclusion; assay type: cell-based, mouse; conditions: 12 μg/ml, 18 hours
# Experimental: (§2) Mouse mastocytoma (P-815), myeloma (Z-P3x63Ag8.653 and Pai) and human erthyroleukemia (K-562) cell lines were used. Primary cultures of normal mouse hepatocytes were isolated from mouse liver using collagenase. Mouse splenocytes were isolated using a glass homogenizer. Marrow cells were obtained by washing the bone marrow. See, for example, Shears, S. B. and Kirk, C. J. (1984), Biochem. J. 219:375-382.
# (§3) Cells were cultured in RPMI-1640 medium supplemented with 10% fetal calf serum, 100 mM L-glutamine and 50 μg/ml gentamycin at 37° C. under 5% CO2. Cells were seeded into 24-well plates at a density of 50,000 cells/well and grown until near confluency, approximately 2 days, then transferred to 96-well plates at the same density. […] Viability of the cells was determined by trypan blue exclusion. […] Approximately 25% of K-562 and X-653 cells survived at a concentration of 12 μg/ml, and the same proportion of P-815 cells survived at a concentration of about 25 μg/ml.
# P-815 cells = assay: as above; assay type: cell-based, mouse; conditions: about 25 μg/ml, 18 hours
# Experimental: as §2, §3
# immune system [5] = assay: Immune system modulation in mice immunodepressed with cyclophosphamide; assay type: in vivo; conditions: 10 mg/kg for 10 days
# Experimental: Mice were immunodepressed by administration of 200 mg/kg of cyclophosphamide. […] The Hemagglutination test and delayed-type hypersensitivity reaction were determined before and after administration of drug.
# The increased number of T-lymphocytes was accompanied by an elevation in the T-helper subpopulation as well as the T-suppressor subpopulation, although to a lesser extent.
# Sarcoma-45 = assay: Inhibition of tumor growth in implanted tumors; assay type: in vivo, rats
# stage IV cancer = assay: Second clinical trial, 72 patients; assay type: in vivo, human
# From the text: A three to six month lag in dimethylaminoarglabin hydrochloride production halted the first clinical trial. […] Among the patients, 25% had carcinoma of the stomach, 16.7% had liver cancer, 18.1% had lung cancer and the remaining 40.2% had esophageal, breast, ovarian, pancreatic, brain or lymphosarcoma. Patients with poorer states had metastases to the liver (25%), retroperitoneal lymph nodes (25), ascites (22.2%) and exudative pleuritis (11.1%).
# Sarcoma-37 = assay: Inhibition of tumor growth in implanted tumors; assay type: in vivo, mice and rats; conditions: dose 30 mg/kg
# [6] = system: drug resistant metastasis of Pliss' lymphosarcoma; assay: Model of drug resistant metastasis of Pliss' lymphosarcoma; assay type: in vivo, rats; conditions: alone
# PC-1 = assay: Inhibition of tumor growth in implanted tumors; assay type: in vivo, mice and rats; conditions: dose 30 mg/kg
# [7] = Ability to keep normal activities, minimum signs of the disease
# [8] = Maintains themself, but is not able to work
# [9] = Needs occasional assistance, but is able to maintain themself
# [10] = Normal activities are hardly performable, some signs of the disease
compound,measurement,setting,value
CC1=CCC23OC2(C)CCC2C(CN(C)C)C(=O)OC2C13.Cl (centres unmarked) [Dimethylaminoarglabin hydrochloride],LD50,[1]; mice,190 to 220 mg/kg
same,LD50,[1]; rats,280 to 310 mg/kg
same,solubility in water,Solubility in water,soluble in water
same,"Inhibition of Tumour Growth, % - M-1 Sarcoma",M-1 Sarcoma,83.5** %
same,L-1210 - increase in survival,L-1210,+60%
same,average time of retention,"rat, in vivo",about 67 hours
same,brain tissue concentration,"rat, in vivo",23.9 µg/g
same,concentration in the liver,"rat, in vivo",228.6 µg/g
same,maximum lung concentration,"rat, in vivo",149.4 µg/g
same,maximum spleen concentration,"rat, in vivo",159 µg/g
same,penetration through the blood-brain barrier,"rat, in vivo",able to penetrate through the blood-brain barrier
same,total clearance,"rat, in vivo",0.5 mL/min
same,maximal level in the blood serum,"rat, in vivo, iv, 2 mg/kg",30 µg/mL
same,time of maximal level in the blood serum,"rat, in vivo, iv, 2 mg/kg",within one hour
same,volume of distribution,"rat, in vivo, iv, 2 mg/kg",large
same,kidney concentration,"rats, 24 hours",56.6 µg/g
same,concentration in skeletal muscle,"rats, within three hours after administration",176.4 µg/g
same,findings after prolonged daily intraperitoneal administration,[2],Reversible changes in glycolysis and tissue respiration
same,neutrophil adhesiveness,"immune system [3]; days 3-5 of treatment, decreased from 42%",28.5%
same,undifferentiated lymphocytes,"immune system [3]; days 3-5 of treatment, increased from 21.5%",42.2%
same,number of T-helper lymphocytes,"immune system [3]; days 3-5 of treatment, reduced from 50%",37.3%
same,number of T-lymphocytes,"immune system [3]; days 3-5 of treatment, reduced from 57%",40.1%
same,total number of leukocytes increased up to,immune system [3]; during treatment,up to 9.4 ×10^9/L
same,"Inhibition of Tumour Strains Growth, % - Resistant Forms - Sarcoma-45 to prospidine",[4],87.4*** %
same,cells survived,X-653 cells,Approximately 25%
same,cells survived,P-815 cells,Approximately 25%
same,leukopenia and lymphopenia,immune system [5],reduced the leukopenia and lymphopenia
same,"Inhibition of Tumour Growth, % - Sarcoma-45",Sarcoma-45; dose 30 mg/kg,86.5*** %
same,"Inhibition of Tumour Growth, % - Sarcoma-45",Sarcoma-45; dose 50 mg/kg,83.1** %
same,patients with no response,stage IV cancer; 8 of 72,11.1%
same,patients responded to therapy,stage IV cancer; 64 of 72,88.9%
same,% of Patients - Absence of dynamics or stabilization,stage IV cancer; 72 patients,31.9%
same,% of Patients - Partial regression over or equal to 50% decrease of tumor or metastasis,stage IV cancer; 72 patients,61.1%
same,% of Patients - Progression,stage IV cancer; 72 patients,7.0%
same,Number of Patients % - Karnofsky scale 90,stage IV cancer; [7],41.7%
same,"Number of Patients abs, N - Karnofsky scale 90",stage IV cancer; [7],30
same,"Thrombocytes, mean index of peripheral blood",stage IV cancer; After Treatment (before treatment 2.0),2.8 thsd
same,"Erythrocytes, mean index of peripheral blood",stage IV cancer; After Treatment (before treatment 2.3-3.0),3.0 10^12/l-10^9/l
same,"Leukocytes, mean index of peripheral blood",stage IV cancer; After Treatment (before treatment 4.5-5.5),4.0 10^12/l-10^9/l
same,"Lymphocytes, mean index of peripheral blood",stage IV cancer; After Treatment (before treatment 8-15),15-20
same,"Thrombocytes, mean index of peripheral blood",stage IV cancer; During Treatment (before treatment 2.0),2.3 thsd
same,"Erythrocytes, mean index of peripheral blood",stage IV cancer; During Treatment (before treatment 2.3-3.0),2.4-3.0 10^12/l-10^9/l
same,"Leukocytes, mean index of peripheral blood",stage IV cancer; During Treatment (before treatment 4.5-5.5),3.5-4.0 10^12/l-10^9/l
same,"Lymphocytes, mean index of peripheral blood",stage IV cancer; During Treatment (before treatment 8-15),28-35
same,Number of Patients % - Karnofsky scale 30,stage IV cancer; Extreme invalidism,4.2%
same,"Number of Patients abs, N - Karnofsky scale 30",stage IV cancer; Extreme invalidism,3
same,Number of Patients % - Karnofsky scale 70,stage IV cancer; [8],33.3%
same,"Number of Patients abs, N - Karnofsky scale 70",stage IV cancer; [8],24
same,Number of Patients % - Karnofsky scale 60,stage IV cancer; [9],6.9%
same,"Number of Patients abs, N - Karnofsky scale 60",stage IV cancer; [9],5
same,Number of Patients % - Karnofsky scale 80,stage IV cancer; [10],13.9%
same,"Number of Patients abs, N - Karnofsky scale 80",stage IV cancer; [10],10
same,side effects,"stage IV cancer; patients, hydrochloride",No side effects
same,"Inhibition of Tumour Growth, % - Sarcoma-37",Sarcoma-37,78.2* %
same,duration of life in comparison with the control group,[6],128%
same,"Inhibition of Tumour Growth, % - PC-1",PC-1,84.3* %
